According to ChEMBL document CHEMBL1139192, “Novel bis(indolyl)maleimide pyridinophanes that are potent, selective inhibitors of glycogen synthase kinase-3” (Bioorg Med Chem Lett, 2007):

What was measured:
[1] = target: Cytoplasmic tyrosine-protein kinase BMX (Homo sapiens) (UniProt P51813); experiment: Inhibition of human BMX kinase at 1 uM relative to control; values are per cent of control
[2] = target: Ribosomal protein S6 kinase alpha-5 (Homo sapiens, UniProt O75582); experiment: Inhibition of human MSK1
Chain of Ribosomal protein S6 kinase alpha-5 (O75582 whole entry): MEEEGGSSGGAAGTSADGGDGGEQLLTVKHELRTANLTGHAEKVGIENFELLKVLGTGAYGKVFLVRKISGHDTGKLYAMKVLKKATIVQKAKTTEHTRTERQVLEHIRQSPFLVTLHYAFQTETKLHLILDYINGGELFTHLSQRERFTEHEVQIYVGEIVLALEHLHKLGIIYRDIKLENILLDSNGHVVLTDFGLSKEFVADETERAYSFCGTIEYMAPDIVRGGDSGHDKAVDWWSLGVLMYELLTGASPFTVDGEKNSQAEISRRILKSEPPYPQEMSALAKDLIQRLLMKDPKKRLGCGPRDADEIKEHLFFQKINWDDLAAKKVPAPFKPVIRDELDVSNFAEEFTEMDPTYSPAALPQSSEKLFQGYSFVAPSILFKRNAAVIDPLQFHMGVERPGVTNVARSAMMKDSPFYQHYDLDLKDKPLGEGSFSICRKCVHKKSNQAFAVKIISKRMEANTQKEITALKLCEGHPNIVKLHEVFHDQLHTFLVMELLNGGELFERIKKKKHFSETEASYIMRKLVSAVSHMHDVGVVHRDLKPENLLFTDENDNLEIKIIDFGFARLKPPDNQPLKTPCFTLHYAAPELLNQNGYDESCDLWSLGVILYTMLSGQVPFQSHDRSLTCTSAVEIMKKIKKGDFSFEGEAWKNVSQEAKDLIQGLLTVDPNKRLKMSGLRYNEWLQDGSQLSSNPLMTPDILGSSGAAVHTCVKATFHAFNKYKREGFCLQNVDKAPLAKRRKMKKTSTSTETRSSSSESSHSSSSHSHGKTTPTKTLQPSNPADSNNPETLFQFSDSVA

Chain of Cytoplasmic tyrosine-protein kinase BMX (Homo sapiens) (P51813 whole entry): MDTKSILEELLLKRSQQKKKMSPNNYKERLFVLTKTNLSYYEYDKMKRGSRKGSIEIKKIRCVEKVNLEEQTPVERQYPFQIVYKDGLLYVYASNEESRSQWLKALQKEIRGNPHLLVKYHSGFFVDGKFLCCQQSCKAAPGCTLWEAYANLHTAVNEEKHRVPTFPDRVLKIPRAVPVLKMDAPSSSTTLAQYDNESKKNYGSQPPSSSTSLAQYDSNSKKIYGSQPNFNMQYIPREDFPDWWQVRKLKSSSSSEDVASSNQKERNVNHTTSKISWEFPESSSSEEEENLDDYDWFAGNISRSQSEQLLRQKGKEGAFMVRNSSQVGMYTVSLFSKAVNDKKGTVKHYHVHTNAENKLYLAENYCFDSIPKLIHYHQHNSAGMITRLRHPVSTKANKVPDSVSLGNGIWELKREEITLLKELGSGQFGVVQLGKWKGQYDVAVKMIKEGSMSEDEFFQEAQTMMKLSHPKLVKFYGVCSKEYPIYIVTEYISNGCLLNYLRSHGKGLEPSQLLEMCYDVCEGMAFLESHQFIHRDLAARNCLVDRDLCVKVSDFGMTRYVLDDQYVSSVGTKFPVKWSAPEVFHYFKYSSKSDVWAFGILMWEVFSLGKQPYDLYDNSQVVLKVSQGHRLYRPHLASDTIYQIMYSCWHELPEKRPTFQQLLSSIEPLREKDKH

residual activity [1]: 101%
IC50 [2]: 510 nM
SMILES: CN(C)c1nc2ccc1CCCn1cc(c3ccccc31)C1=C(C(=O)NC1=O)c1cn(c3ccccc13)CC2
